Data on six compounds can be found in patent US8323680B1, “Nutritional composition” (Nestec S.A., priority 1999, dated 2012).

The subject of assay [1] is male Rj:NMRI mice. Kind of assay: ELEVATED PLUS MAZE TEST, number of entries in the closed arms. The assay is classed as in vivo. The settings on record: for Number of Entries in the Closed Arms, average entries: diets for 42 days, agent intraperitoneally 60 minutes before test. The procedure: In order to show the biological activity of the composition of the present invention on animal's behaviour the effect of dietary poly-unsaturated fatty acids with and without a CB-1 receptor antagonist on anxiolytic-like responses in mice were tested. To this end, the ELEVATED PLUS MAZE TEST was applied (adapted after Handley and Mithani (Naunyn. Schmied. Arch. Pharmacol. 327: 1-5, 1984).
For the experiments male Rj:NMRI mice, obtained from Elevage Janvier, Le Genest-Saint-Isle France and weighing 10-11 g at delivery and 33-51 grams on day 42 were used. The mice were housed 10 per cage in wire cages with bedding and normal light cycle. They received ad libitum quantities of bottled distilled water and purified powdered diets (7.5 g/mouse) in ceramic cups (10/group) for 42 days. The Food was maintained at −80° C. in daily aliquots under nitrogen, thawed each afternoon before administration to mice. Uneaten food was discarded daily.
The principle of the test resides in that anxiolytic agents increase the number of entries into the open and often the closed arms of the […], mice should want to move and explore the spaces of the open and closed arms rather than staying still in the middle).
Mice were given the following agents intraperitoneally 60 minutes before the Plus Maze test:
All diets contained 90% fat-free AIN93G rodent diet in powder form (Lot 9350-5, Dyets, Inc., Bethlehem, Pa.), 0.4% milk fat, 1.2% palm olein, 1.9% Trisun sunflower oil, 1.5% soybean oil and 2.1-5.1% medium chain triacylglycerol oil. Parts of the medium chain triacylglycerol oil were replaced with 1.1% algal oil (providing 0.5 dietary wt.-% arachidonic acid) in diet D, 1.9% fish oil (providing 0.5 dietary wt.-% docosahexaenoic acid) in diet E, and with 1.1% algal oil and 1.9% fish oil in diets F and G. Dietary groups are summarized in the table below:
The body weight, weight gain and the food intake of the mice was monitored throughout the experiment. […]

Assay [2] can be described thus: Effects of oral administration of cannabimimetic lipids on ambulation, rearing, immobility, analgesia, body temperature and fecal output (FIG. 3-5). The assay is classed as in vivo. The settings on record: for immobility, difference from control group / rearing, difference from control group / body temperature, difference from control group: p<0.01-0.05, ANOVA, Newman-Keuls.

In assay [3] the test system is animals. Conditions: injected into animals; cited from earlier work.
Assay [4] has as its system mice. Conditions: oral, anandamide 300 mgkg body weight−1, 2-arachidonoyl glycerol 400 mgkg body weight−1; cited from earlier work.

As to `CN1C(=O)CC(=O)N(c2ccccc2)c2cc(Cl)ccc21` [Clobazam], the “Number of Entries in the Closed Arms, average entries” value in assay [1] is reported as 6.3.
Take `Cc1c(C(=O)NN2CCCCC2)nn(-c2ccc(Cl)cc2Cl)c1-c1ccc(I)cc1` [C]: in assay [1], the “Number of Entries in the Closed Arms, average entries” value was 2.3. Moreover, the “Number of Entries in the Closed Arms, difference vs. group A” value in assay [1] (p-value = 0.19) was “There was no significant difference (p-value = 0.19)”.
Regarding `CCCCCc1cc(O)c2c(c1)OC(C)(C)[C@@H]1CCC(C)=C[C@@H]21` [THC, 9-tetrahydrocannabinol], in assay [2] (oral administration), the analgesia result is on record as “significantly increased analgesia”; the “immobility, difference from control group” value (“immobility, difference” below) is “significantly different”; the “rearing, difference from control group” value was “significantly different”. In assay [2], the “body temperature, difference from control group” value (“body temperature, difference” below) is given as “significantly different”.
In the case of N-arachidonylethanolamine [anandamide], the “effects of pure doses when injected” value in assay [3] was “calming effects and effects on the immune system”. Besides, the “bioactivity when taken orally” value in assay [4] is “have bioactivity”. Moreover, in assay [2] (oral administration), the “immobility, difference” value is “significantly different” and the “rearing, difference from control group” value is given as “significantly different”. Further, the “body temperature, difference” value in assay [2] is on record as “significantly different”.
For 2 arachidonylglycerol [Diet 2-AG], the “effects of pure doses when injected” value in assay [3] is “calming effects and effects on the immune system”. For the same compound, the “bioactivity when taken orally” value in assay [4] was “have bioactivity”. Also, in assay [2] (oral administration), the “immobility, difference” value was “significantly different” and the “rearing, difference from control group” value was “significantly different”. In addition, the “body temperature, difference” value in assay [2] was “significantly different”.
As for `CCCCCCCC/C=C\CCCCCCCC(N)=O` [oleamide], the “effects of pure doses when injected” value in assay [3] is “calming effects and effects on the immune system”. In addition, in assay [2] (oral administration), the “immobility, difference” value is listed as “significantly different” and the “rearing, difference from control group” value was “significantly different”. Also, the “body temperature, difference” value in assay [2] was “significantly different”.
